Results: patent US20250243194A1, “ANTAGONIST OF ADENOSINE RECEPTORS” (AdoRx Therapeutics Limited, priority 2022, published 2025)
Where two headings read alike, the source gives them in different places.

Key:
[1] = target: human Adenosine A1 receptor (Homo sapiens (Human), UniProt P30542); test: Adenosine receptor TR-FRET binding assay (A1)
Protocol: (§1) All FRET binding experiments were conducted at room temperature in white 384-well plates, in assay binding buffer containing 1× LabMed (Cisbio, France), 100 μg/mL saponin, 1% DMSO and 0.02% pluronic acid. Binding of the fluorescently labelled Adenosine receptor antagonist XAC (CA200645, FRET acceptor) to terbium-labelled A1, A2a, A2b and A3 adenosine receptors (FRET donors) was detected by time-resolved FRET due to the close proximity of the donor and acceptor in a binding event. To investigate the ability of unlabelled test compounds to bind to Adenosine A1, A2a, A2b and A3 receptors, dose response curves were constructed that determined the ability of a range of concentrations to inhibit the binding of 30 nM CA200645 to the A2b receptor and 100 nM CA200645 to the A1, A2a, and A3 receptor.
(§2) Serial dilution (1:3 dilutions) of test compounds in neat DMSO and transfer of a 400 nL sample of test compound into the assay plate was carried out using the Mosquito (TTP Labtech, UK). The compound samples were incubated for 2 hours at room temperature with a fixed concentration of CA200645 defined for each receptor (see above) and CHO cell membranes containing the human Adenosine A1 (0.5 μg/well), A2a (0.3 μg/well), A2b (1 μg/well) or A3 (1 μg/well) receptor in 40 μL of assay buffer. Total and non-specific binding of CA200645 was determined in the absence and presence of 10 μM XAC, respectively. Following 2 hours incubation, the level of CA200645 binding was detected on a Pherastar FSX (BMG Labtech, Germany) using standard TR-FRET settings. The terbium donor was excited with three laser flashes at a wavelength of 337 nm, and donor and acceptor emission was detected at 620 nm and 665 nm wavelengths, respectively. FRET ratios were obtained by multiplying the acceptor/donor ratio value by 10,000. Specific binding was determined by subtracting the non-specific binding FRET ratio from the total binding FRET ratio. Compound IC50 curves were analysed using GraphPad Prism 7.0 (GraphPad, USA) and Ki affinity values were determined from the obtained IC50 values using the method of Cheng and Prusoff.

[2] = target: human Adenosine A2a receptor (Homo sapiens (Human), UniProt P29274); test: Adenosine receptor TR-FRET binding assay (A2a)
Chain of human Adenosine A2a receptor (P29274 whole entry): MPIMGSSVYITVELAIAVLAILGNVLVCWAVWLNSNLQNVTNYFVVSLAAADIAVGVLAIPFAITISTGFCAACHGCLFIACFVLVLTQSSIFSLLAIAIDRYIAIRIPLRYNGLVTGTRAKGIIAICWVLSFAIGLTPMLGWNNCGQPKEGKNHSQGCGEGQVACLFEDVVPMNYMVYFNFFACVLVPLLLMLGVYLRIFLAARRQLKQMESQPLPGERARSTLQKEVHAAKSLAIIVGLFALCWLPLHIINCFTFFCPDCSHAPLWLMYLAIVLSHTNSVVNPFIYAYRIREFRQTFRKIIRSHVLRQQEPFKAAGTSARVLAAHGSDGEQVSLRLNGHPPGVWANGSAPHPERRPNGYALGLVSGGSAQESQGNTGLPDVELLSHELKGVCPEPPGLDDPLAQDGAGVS
Protocol: as §1, §2

[3] = target: human Adenosine A2b receptor (Homo sapiens (Human), UniProt P29275); test: Adenosine receptor TR-FRET binding assay (A2b); conditions: inhibition of binding of 30 nM CA200645; CHO cell membranes; Ki from IC50 by Cheng and Prusoff
Chain of human Adenosine A2b receptor (P29275 whole entry): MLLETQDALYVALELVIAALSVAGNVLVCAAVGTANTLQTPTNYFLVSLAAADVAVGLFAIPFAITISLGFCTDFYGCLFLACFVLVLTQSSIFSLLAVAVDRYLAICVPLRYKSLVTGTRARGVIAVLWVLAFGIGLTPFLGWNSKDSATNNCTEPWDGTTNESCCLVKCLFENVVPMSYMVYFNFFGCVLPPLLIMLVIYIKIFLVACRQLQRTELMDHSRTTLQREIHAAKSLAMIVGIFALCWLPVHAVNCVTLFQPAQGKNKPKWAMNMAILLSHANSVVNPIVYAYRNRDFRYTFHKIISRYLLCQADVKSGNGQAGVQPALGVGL
Protocol: as §1, §2

[4] = target: human Adenosine A3 receptor (Homo sapiens (Human), UniProt P0DMS8); test: Adenosine receptor TR-FRET binding assay (A3); conditions: inhibition of binding of 100 nM CA200645; CHO cell membranes; Ki from IC50 by Cheng and Prusoff
Chain of human Adenosine A3 receptor (P0DMS8 whole entry): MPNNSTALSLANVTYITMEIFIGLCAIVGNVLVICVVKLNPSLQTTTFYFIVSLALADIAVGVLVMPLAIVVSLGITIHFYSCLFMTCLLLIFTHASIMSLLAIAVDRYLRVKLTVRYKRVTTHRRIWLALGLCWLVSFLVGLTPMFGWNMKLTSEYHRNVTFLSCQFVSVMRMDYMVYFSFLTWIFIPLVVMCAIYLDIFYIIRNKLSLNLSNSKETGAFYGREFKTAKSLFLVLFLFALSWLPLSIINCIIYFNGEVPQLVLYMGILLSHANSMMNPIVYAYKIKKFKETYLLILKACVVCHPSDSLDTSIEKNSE
Protocol: as §1, §2

[5] = system: CD8+ T cells in human whole blood; test: Measurement of pCREB in CD8+ T cells in human whole blood; type: cell-based; conditions: T-cell, 3 μM NECA, rolipram, FACS
Protocol: Heparinised human whole blood was pre-incubated at 37° C. with serial dilutions of A2a antagonists for 20 min. and the phosphodiesterase inhibitor rolipram to amplify the pCREB response. The adenosine receptor agonist NECA is then added at a final concentration of 3 μM and following a 60 min incubation the blood is fixed and red blood cells lysed. White blood cells are isolated, permeabilized and stained with directly conjugated fluorescent antibodies to phospho-CREB (Alexa Fluor 488) and CD8 (Alexa Fluor 647) and the level of phospho-CREB in CD8+ T cells is measured by FACS using a BD Accuri C6 Flow Cytometer.

[6] = inhibition of binding of 100 nM CA200645, CHO cell membranes, Ki from IC50 by Cheng and Prusoff

Chain of human Adenosine A1 receptor (P30542 whole entry): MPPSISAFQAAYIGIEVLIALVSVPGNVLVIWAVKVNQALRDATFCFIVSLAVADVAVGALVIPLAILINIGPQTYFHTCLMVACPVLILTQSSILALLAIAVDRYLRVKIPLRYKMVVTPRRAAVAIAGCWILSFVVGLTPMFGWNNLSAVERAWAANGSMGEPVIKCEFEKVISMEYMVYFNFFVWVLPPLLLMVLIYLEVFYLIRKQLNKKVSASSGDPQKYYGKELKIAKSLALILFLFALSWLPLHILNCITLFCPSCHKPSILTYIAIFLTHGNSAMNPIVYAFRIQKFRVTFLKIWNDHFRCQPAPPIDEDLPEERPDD

SMILES	Ki [1, 6]	Ki [2, 6]	Ki [3]	Ki [4]	IC50 [5]	Ki [1]	Ki [2]
Cn1ccc2c(-c3sc(NC(=O)N4CC5(COC5)C4)nc3-c3cccc(C#N)c3)ccnc21 [Example 21, N-[4-(3-Cyanophenyl)-5-(1-methylpyrrolo[2,3-b]pyridin-4-yl)thiazol-2-yl]-2-oxa-6-azaspiro[3.3]heptane-6-carboxamide]	4 nM	8.33 nM	2.6 nM	421 nM			
N#Cc1cccc(-c2nc(NC(=O)N3CC4(COC4)C3)sc2-c2c[nH]c3ncccc23)c1 [Example 17, N-[4-(3-Cyanophenyl)-5-(1H-pyrrolo[2,3-b]pyridin-3-yl)thiazol-2-yl]-2-oxa-6-azaspiro[3.3]heptane-6-carboxamide]	1 nM	3.11 nM	0.8 nM	305 nM			
Cc1cc(-c2sc(NC(=O)N3CC4(COC4)C3)nc2-c2cccc(C#N)c2)c2cc[nH]c2n1 [Example 34, N-[4-(3-Cyanophenyl)-5-(6-methyl-1H-pyrrolo[2,3-b]pyridin-4-yl)thiazol-2-yl]-2-oxa-6-azaspiro[3.3]heptane-6-carboxamide]	290 nM	7.4 nM	7.6 nM	260 nM			
Cc1cc(-c2sc(NC(=O)N3CC4(COC4)C3)nc2-c2cccc(C#N)c2)cc2[nH]nnc12 [Example 2.3, N-[4-(3-Cyanophenyl)-5-(7-methyl-3H-benzotriazol-5-yl)thiazol-2-yl]-2-oxa-6-azaspiro[3.3]heptane-6-carboxamide]	1 nM	1.37 nM	1.7 nM	466 nM			
Cc1cc(-c2sc(NC(=O)N3CC4(COC4)C3)nc2-c2cccc(C#N)c2)cc2cn(C)nc12 [Example 28, N-[4-(3-Cyanophenyl)-5-(2,7-dimethylindazol-5-yl)thiazol-2-yl]-2-oxa-6-azaspiro[3.3]heptane-6-carboxamide]	21 nM	8.4 nM	6.7 nM	628 nM			
Cc1cc(-c2sc(NC(=O)N3CC4(COC4)C3)nc2-c2cccc(C#N)c2)cc2cn[nH]c12 [Example 27, N-[4-(3-Cyanophenyl)-5-(7-methyl-1H-indazol-5-yl)thiazol-2-yl]-2-oxa-6-azaspiro[3.3]heptane-6-carboxamide]	0.5 nM	0.08 nM	2.9 nM	907 nM			
Cc1cc(-c2sc(NC(=O)N3CC4(COC4)C3)nc2-c2cccc(C#N)c2)cc2[nH]ncc12 [Example 2.2, N-[4-(3-Cyanophenyl)-5-(4-methyl-1H-indazol-6-yl)thiazol-2-yl]-2-oxa-6-azaspiro[3.3]heptane-6-carboxamide]	2 nM	2.69 nM	3.3 nM	820 nM			
Cc1cc(-c2sc(NC(=O)N3CC4(COC4)C3)nc2-c2cccc(C#N)c2)c2cn[nH]c2n1 [Example 2.5, N-[4-(3-Cyanophenyl)-5-(6-methyl-1H-pyrazolo[3,4-b]pyridin-4-yl)thiazol-2-yl]-2-oxa-6-azaspiro[3.3]heptane-6-carboxamide]	14 nM	3.3 nM	0.9 nM	2600 nM			
N#Cc1cccc(-c2nc(NC(=O)N3CC4(COC4)C3)sc2-c2ccc3ncoc3c2)c1 [Example 35, N-[5-(1,3-benzoxazol-6-yl)-4-(3-cyanophenyl)thiazol-2-yl]-2-oxa-6-azaspiro[3.3]heptane-6-carboxamide]	1.6 nM	1.4 nM	1.6 nM	130 nM			
Cc1cc(-c2sc(NC(=O)N3CC4(COC4)C3)nc2-c2cccc(C#N)c2)cn2c(C)cnc12 [Example 18, N-[4-(3-Cyanophenyl)-5-(3,8-dimethylimidazo[1,2-a]pyridin-6-yl)thiazol-2-yl]-2-oxa-6-azaspiro[3.3]heptane-6-carboxamide]	1 nM	0.11 nM	0.9 nM	2630 nM			
Cc1ncnc2ccc(-c3sc(NC(=O)N4CCC5(CNCCO5)C4)nc3-c3cccc(C#N)c3)cc12 (centres unmarked) [Example 4, N-[4-(3-Cyanophenyl)-5-(4-methylquinazolin-6-yl)thiazol-2-yl]-6-oxa-2,9-diazaspiro[4.5]decane-2-carboxamide]	27 nM	0.19 nM	1.9 nM		10 nM		
Cc1cc(-c2sc(NC(=O)N3CCC(C)(C#N)CC3)nc2-c2cccc(C#N)c2)c2[nH]ncc2n1 [Example 19, 4-Cyano-N-[4-(3-cyanophenyl)-5-(5-methyl-1H-pyrazolo[4,3-b]pyridin-7-yl)thiazol-2-yl]-4-methyl-piperidine-1-carboxamide]	240 nM	2 nM	1.8 nM		216 nM		
Cc1ncnc2ccc(-c3sc(NC(=O)N4CCC(N5CCN(C)CC5)CC4)nc3-c3cccc(C#N)c3)cc12 [Example 7.12, N-[4-(3-Cyanophenyl)-5-(4-methylquinazolin-6-yl)thiazol-2-yl]-4-(4-methylpiperazin-1-yl)piperidine-1-carboxamide]	221 nM	2.05 nM	6.5 nM				
Cc1ncnc2ccc(-c3sc(NC(=O)N4CCC5(CC4)CNCCO5)nc3-c3cccc(C#N)c3)cc12 [Example 3.1, N-[4-(3-Cyanophenyl)-5-(4-methylquinazolin-6-yl)thiazol-2-yl]-1-oxa-4,9-diazaspiro[5.5]undecane-9-carboxamide]	48 nM	0.15 nM	1.3 nM		10 nM		
Cc1ncnc2ccc(-c3sc(NC(=O)N4CCC5(COCCN5)C4)nc3-c3cccc(C#N)c3)cc12 (centres unmarked) [Example 4.3, N-[4-(3-Cyanophenyl)-5-(4-methylquinazolin-6-yl)thiazol-2-yl]-9-oxa-2,6-diazaspiro[4.5]decane-2-carboxamide]			2.4 nM			30 nM	0.3 nM
Cc1nc(C)c2cc(-c3sc(NC(=O)N4CC5(COC5)C4)nc3-c3cccc(C#N)c3)ccc2n1 [Example 9, N-[4-(3-Cyanophenyl)-5-(2,4-dimethylquinazolin-6-yl)thiazol-2-yl]-2-oxa-6-azaspiro[3.3]heptane-6-carboxamide]	70 nM	5.45 nM	6 nM				

The remaining lines, values ahead:

Ki [1, 6]	Ki [2, 6]	Ki [3]	Ki [4]	IC50 [5]	Ki [1]	Ki [2]	SMILES
3 nM	0.09 nM	0.5 nM		5 nM			Cc1ncnc2ccc(-c3sc(NC(=O)N4CC5(COC5)C4)nc3-c3cccc(C#N)c3)cc12 [Example 7.29, N-[4-(3-Cyanophenyl)-5-(4-methylquinazolin-6-yl)thiazol-2-yl]-2-oxa-6-azaspiro[3.3]heptane-6-carboxamide]
19 nM	2.42 nM	10.5 nM					Cc1ncnc2ccc(-c3sc(NC(=O)N4CC5CN(C)CC54)nc3-c3cccc(C#N)c3)cc12 (centres unmarked) [Example 7.3, N-[4-(3-Cyanophenyl)-5-(4-methylquinazolin-6-yl)thiazol-2-yl]-3-methyl-3,6-diazabicyclo[3.2.0]heptane-6-carboxamide]
21 nM	0.1 nM	1.9 nM					Cc1ncnc2ccc(-c3sc(NC(=O)N4CCC(OCCN5CCCC5)C4)nc3-c3cccc(C#N)c3)cc12 (centres unmarked) [Example 7.9, N-[4-(3-Cyanophenyl)-5-(4-methylquinazolin-6-yl)thiazol-2-yl]-3-(2-pyrrolidin-1-ylethoxy)pyrrolidine-1-carboxamide]
9 nM	0.26 nM	3.6 nM					Cc1ncnc2ccc(-c3sc(NC(=O)N4CCOC(C(C)(C)O)C4)nc3-c3cccc(C#N)c3)cc12 (racemic) [Example 7.7, N-[4-(3-Cyanophenyl)-5-(4-methylquinazolin-6-yl)thiazol-2-yl]-2-(1-hydroxy-1-methyl-ethyl)morpholine-4-carboxamide]
13 nM	0.08 nM	0.9 nM					Cc1ncnc2ccc(-c3sc(NC(=O)N4CC5(CCO5)C4)nc3-c3cccc(C#N)c3)cc12 [Example 7.19, N-[4-(3-Cyanophenyl)-5-(4-methylquinazolin-6-yl)thiazol-2-yl]-1-oxa-6-azaspiro[3.3]heptane-6-carboxamide]
